Test results taken from patent US7820379B2, “Process for high throughput screening of CpG-based immuno-agonist/antagonist” (Coley Pharmaceutical GmbH, priority 2000, dated 2010).

What was measured:
Assay type in all cases: cell-based
hTLR7 = biological target: T1, hTLR7 (Homo sapiens, UniProt Q9NYK1); assay: IL-8 production in 293 cells transiently transfected with hTLR7; conditions: 293 cells transfected with hTLR7; ODN 2 μM, LPS 100 ng/ml
T1 construct: codes for a protein of 1049 amino acids; expressed in transfected cells; host or cells: human 293 fibroblasts (ATCC CRL-1573), transient
T1 sequence (Q9NYK1 27-1049): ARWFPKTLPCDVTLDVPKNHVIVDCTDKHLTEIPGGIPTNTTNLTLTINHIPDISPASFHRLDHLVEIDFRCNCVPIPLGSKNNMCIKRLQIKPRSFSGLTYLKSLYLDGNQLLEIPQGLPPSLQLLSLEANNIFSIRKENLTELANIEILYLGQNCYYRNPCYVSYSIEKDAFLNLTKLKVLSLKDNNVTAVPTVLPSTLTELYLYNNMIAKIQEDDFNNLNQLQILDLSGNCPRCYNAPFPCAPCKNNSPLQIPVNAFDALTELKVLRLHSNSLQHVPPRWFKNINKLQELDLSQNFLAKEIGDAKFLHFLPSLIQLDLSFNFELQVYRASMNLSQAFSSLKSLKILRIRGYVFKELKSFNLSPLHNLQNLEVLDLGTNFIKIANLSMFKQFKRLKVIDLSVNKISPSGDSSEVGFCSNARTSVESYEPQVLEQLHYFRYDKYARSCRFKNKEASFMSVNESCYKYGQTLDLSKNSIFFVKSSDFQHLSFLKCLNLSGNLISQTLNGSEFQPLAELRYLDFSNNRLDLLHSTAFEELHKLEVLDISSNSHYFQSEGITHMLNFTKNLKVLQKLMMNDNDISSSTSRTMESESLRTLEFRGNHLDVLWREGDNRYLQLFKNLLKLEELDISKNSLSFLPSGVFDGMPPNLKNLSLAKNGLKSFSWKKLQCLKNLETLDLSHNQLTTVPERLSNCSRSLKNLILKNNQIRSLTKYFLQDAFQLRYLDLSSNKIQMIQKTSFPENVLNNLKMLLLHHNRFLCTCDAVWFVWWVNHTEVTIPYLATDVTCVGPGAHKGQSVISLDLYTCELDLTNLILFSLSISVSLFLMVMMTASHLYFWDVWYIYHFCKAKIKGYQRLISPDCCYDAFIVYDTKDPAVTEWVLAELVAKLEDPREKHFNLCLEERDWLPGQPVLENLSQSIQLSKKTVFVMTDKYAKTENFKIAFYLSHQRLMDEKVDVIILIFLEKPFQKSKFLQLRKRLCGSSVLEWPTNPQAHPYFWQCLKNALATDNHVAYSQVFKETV
Experimental: (§1) The cloned human TLR7 and human TLR8 cDNA (our result) were cloned into the expression vector pcDNA3.1 (−) from Invitrogen using the NotI site. Utilizing a “gain of function” assay, hTLR7 and hTLR8 expression vectors were transiently expressed in human 293 fibroblasts (ATCC, CRL-1573) using the calcium phosphate method. Activation was monitored by IL-8 production after stimulus with CpG-ODN (2006 or 1668, 2 μM) or LPS (100 ng/ml).

hTLR8 = biological target: T2, hTLR8 (Homo sapiens, UniProt Q9NR97); assay: IL-8 production in 293 cells transiently transfected with hTLR8; conditions: 293 cells transfected with hTLR8; ODN 2 μM, LPS 100 ng/ml
T2 construct: codes for a protein of 1041 amino acids; expressed in transfected cells; host or cells: human 293 fibroblasts (ATCC CRL-1573), transient
T2 sequence (Q9NR97 27-1041): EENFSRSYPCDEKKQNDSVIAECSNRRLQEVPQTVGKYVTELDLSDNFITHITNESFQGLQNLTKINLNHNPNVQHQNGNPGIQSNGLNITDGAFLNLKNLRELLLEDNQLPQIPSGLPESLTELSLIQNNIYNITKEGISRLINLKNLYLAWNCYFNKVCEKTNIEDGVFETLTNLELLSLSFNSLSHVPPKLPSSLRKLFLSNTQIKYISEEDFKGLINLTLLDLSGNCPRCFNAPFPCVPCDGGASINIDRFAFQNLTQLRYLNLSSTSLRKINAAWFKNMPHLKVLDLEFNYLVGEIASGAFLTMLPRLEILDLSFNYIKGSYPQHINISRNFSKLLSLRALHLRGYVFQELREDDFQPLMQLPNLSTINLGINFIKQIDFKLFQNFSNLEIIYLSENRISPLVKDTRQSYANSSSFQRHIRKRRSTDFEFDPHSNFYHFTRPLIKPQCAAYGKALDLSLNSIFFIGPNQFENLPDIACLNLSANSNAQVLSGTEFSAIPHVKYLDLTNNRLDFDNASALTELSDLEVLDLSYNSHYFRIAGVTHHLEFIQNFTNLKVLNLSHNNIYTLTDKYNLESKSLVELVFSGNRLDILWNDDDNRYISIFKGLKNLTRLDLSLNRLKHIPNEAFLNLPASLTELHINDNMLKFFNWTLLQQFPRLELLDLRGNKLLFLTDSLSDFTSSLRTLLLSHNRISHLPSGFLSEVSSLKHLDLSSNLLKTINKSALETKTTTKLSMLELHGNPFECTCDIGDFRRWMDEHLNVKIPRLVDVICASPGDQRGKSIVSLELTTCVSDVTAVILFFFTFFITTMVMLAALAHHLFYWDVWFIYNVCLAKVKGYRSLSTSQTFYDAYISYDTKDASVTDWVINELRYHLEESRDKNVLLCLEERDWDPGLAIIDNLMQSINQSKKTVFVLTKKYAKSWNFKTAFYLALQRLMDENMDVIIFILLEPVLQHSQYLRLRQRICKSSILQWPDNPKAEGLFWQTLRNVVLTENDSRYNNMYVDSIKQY
Experimental: as §1

[1] = test system: Human peripheral blood mononuclear cells (PBMC); assay: IL-12 production in human PBMC; conditions: ODN titration, after 8 hours
Excerpt: By iterative examination of the flanking sequences surrounding CG dinucleotides, CpG-motifs have been identified. Paradoxically, or by twist of nature, the human optimal CpG-motif, GTCGTT (SEQ ID NO:66), is different from the murine motif, GACGTT (SEQ ID NO:129). Human peripheral blood mononuclear cells (PBMC) (FIG. 10A) and murine splenocytes (FIG. 10B) were stimulated with ODN 2006 (filled circle, […], SEQ ID NO:112), ODN 2006-GC (open circle), ODN 1668 (filled triangle, […], SEQ ID NO:84) or ODN 1668-GC (open triangle, […], SEQ ID NO:85) at indicated concentrations and IL-12 production was monitored after 8 hours. […] It should also be noted that the Kac (concentration of half-maximal activation) of murine splenocytes for 1668 was greater than human PBMC for 2006 (compare FIG. 10A to FIG. 10B).

Row | Substance | activation monitored by IL-8 production (hTLR7) | activation monitored by IL-8 production (hTLR8) | IL-12 production [1]
1 | TCCATGACGTTCCTGATGCT (listed as DNA, chemistry not fully specified) [ODN 1668] | None of the stimuli used activated | None of the stimuli used activated | much less effective
2 | TCCATGAGCTTCCTGATGCT (listed as DNA, chemistry not fully specified) [ODN 1668-GC] |  |  | essentially negative
3 | TCGTCGTTTTGTCGTTTTGTCGTT [ODN 2006] | None of the stimuli used activated | None of the stimuli used activated | induces IL-12 production
4 | TGCTGCTTTTGTGCTTTTGTGCTT (listed as DNA, chemistry not fully specified) [ODN 2006-GC] |  |  | essentially negative
5 | lipopolysaccharide [LPS] | None of the stimuli used activated | None of the stimuli used activated | 
